Experimental data: patent US9354230B2, “Methods and apparatus for conducting multiple measurements on a sample” (MESO SCALE TECHNOLOGIES, LLC., priority 2001, dated 2016)

Key:
[1] = molecular target: T1, HIV Reverse Transcriptase (RT) RNA-dependent DNA polymerase (RDDP) activity (Human immunodeficiency virus type 1 group M subtype B, UniProt P04585); assay: ECL assay of HIV RT RDDP activity in one well of an MDMW Plate; assay type: biochemical; conditions: 125 uM; data not shown
T1 construct: HIV Reverse Transcriptase (RT), an enzyme with both a RNA-dependent DNA polymerase (RDDP) activity and an RNAse H activity

[2] = molecular target: T2, HIV Reverse Transcriptase (RT) RNAse H activity (Human immunodeficiency virus type 1 group M subtype B, UniProt P04585); assay: ECL assay of HIV RT RNAse H activity in one well of an MDMW Plate; assay type: biochemical; conditions: 125 uM; data not shown
T2 construct: HIV Reverse Transcriptase (RT), an enzyme with both a RNA-dependent DNA polymerase (RDDP) activity and an RNAse H activity

Nc1ccn([C@H]2CC[C@@H](COP(=O)(O)OP(=O)(O)OP(=O)(O)O)O2)c(=O)n1 [ddCTP]
inhibition of RDDP activity [1]: completely inhibited | effect on RNAse H activity [2]: no effect
